Data set [1] in a line: Solubility and chemical stability of the active substances. The conditions noted are these: for solubility: water and aqueous buffers at various pH values. The data set is classed as physicochemical. The text has this:
To ensure good bioavailability of the compound, it is therefore advantageously provided in a form that promotes rapid dissolution thereof.
This has the added advantage of facilitating a more homogenous distribution of the ethinylestradiol throughout the composition which might otherwise be difficult to obtain because ethinylestradiol is incorporated in extremely small amounts. When ethinylestradiol is provided in micronized form, it preferably has the following particle size distribution as determined under the microscope: 100% of the particles have a diameter of ≦15.0 μm, 99% of the particles have a diameter of ≦12.5 μm, 95% of the particles have a diameter of ≦10.0 μm, and 50% of the particles have a diameter of ≦3.0 μm. Furthermore, no particle is larger than 20 μm, and […] have a diameter of ≧15 μm and ≦20 μm.

Data set [2] can be described thus: Relative bioavailability of drospirenone and ethinylestradiol from tablets versus oral suspension, open-label crossover study. The data set is classed as in vivo. The conditions noted are these: female, human, tablet 3 mg drospirenone + 0.03 mg ethinylestradiol, healthy women, serum concentrations, read-out: relative bioavailability from the tablets compared to the oral suspension. As to the method: 42 healthy women between 18 and 35 years of age were included in an open-label crossover study after their informed consent had been obtained. The aim of the study was to investigate the relative bioavailability of drospirenone and ethinylestradiol from a tablet formulation containing 3 mg drospirenone and 0.03 mg ethinylestradiol with reference to an oral suspension containing 6 mg of drospirenone and 0.06 mg ethinylestradiol per vial.
The bioavailability was determined using serum concentrations of each active agent as parameters. […] It was therefore concluded that both drospirenone and ethinylestradiol are completely released from the tablets in vivo.

Data set [3] can be described thus: Absolute bioavailability of drospirenone after oral administration. The conditions noted are these: female, human, in vivo.
The nature of data set [4]: Dissolution of drospirenone from tablets, USP XXIII Paddle Method. The data set is classed as physicochemical. The following applies: 900 ml water, 37° C., 50 rpm. As to the method: Instead of providing the drospirenone in micronized form, it is possible to dissolve it in a suitable solvent, e.g. methanol or ethyl acetate, and spray it onto the surface of inert carrier particles followed by incorporation of the particles containing drospirenone on their surface in the composition.
The rate of dissolution of drospirenone from the tablets prepared in Example 1 is determined by the USP XXIII Paddle Method using a USP Dissolution Test Apparatus 2 including 6 covered glass vessels and 6 paddles. Tablets are placed in 900 ml water at a temperature of 37° C. (±0.5° C.) and stirred at 50 rpm.

For the molecule `C[C@]12CCC(=O)C=C1[C@@H]1C[C@@H]1[C@H]1[C@@H]3[C@@H]4C[C@@H]4[C@@]4(CCC(=O)O4)[C@@]3(C)CC[C@@H]12` [drospirenone, 6β,7β;15β,16β-dimethylene-3-oxo-17α-pregn-4-ene-21,17-carbolactone], the “stability under acid conditions” value in data set [1] (acid conditions) was “rearranged to an inactive isomer”. For the same molecule, in data set [1] (alkaline conditions), the “stability under alkaline conditions” value is “hydrolysed”. Further, the solubility entry in data set [1] was “sparingly soluble”. For the same molecule, the bioavailability in data set [2] was 107%; in data set [3] (oral administration of 2 mg drospirenone, 8 young healthy women), 76%; in data set [3] (oral microcrystalline suspension containing 3.13 mg drospirenone, 6 postmenopausal women), 85%. For the same molecule, the “drospirenone dissolved within 30 minutes” value in data set [4] (film-coated tablets, FIG. 3) was “more than 70%”; in data set [4] (tablet cores, FIG. 2), “more than 70%”.
Regarding `C#C[C@]1(O)CC[C@H]2[C@@H]3CCc4cc(O)ccc4[C@H]3CC[C@@]21C` [ethinylestradiol, 17α-ethinylestradiol], in data set [1], the solubility result is recorded as “sparingly soluble”. The bioavailability in data set [2] was 117%.

The values are drawn from patent US6787531B1, “Pharmaceutical composition for use as a contraceptive” (Schering AG, priority 1999, dated 2004).
